Measurements reported in ChEMBL document CHEMBL5113483, “Design and synthesis of NAD(P)H: Quinone oxidoreductase (NQO1)-activated prodrugs of 23-hydroxybetulinic acid with enhanced antitumor properties” (Eur J Med Chem, 2022).

What was measured:
HT-29 [1] = assay: Induction of apoptosis in human HT-29 cells assessed as late apoptotic cells at 4 uM incubated for 48 hrs by Annexin V-FITC/PI staining based flow cytometry analysis (Rvb= 1.04%); assay type: functional
HT-29 [2] = assay: Induction of apoptosis in human HT-29 cells assessed as dead cells at 1 uM incubated for 48 hrs by Annexin V-FITC/PI staining based flow cytometry analysis (Rvb= 0.01%); assay type: functional
HT-29 [3] = assay: Induction of cell cycle arrest in human HT-29 cells assessed as accumulation of cells at G2 phase at 4 uM incubated for 48 hrs by RNaeA/propidium iodide based flow cytometry analysis (reference value: 13.96 %); assay type: functional
HT-29 [4] = assay: Induction of cell cycle arrest in human HT-29 cells assessed as accumulation of cells at G1 phase at 4 uM incubated for 48 hrs by RNaeA/propidium iodide based flow cytometry analysis (reference value: 62.98 %); assay type: functional
HT-29 [5] = assay: Induction of mitochondrial membrane potential loss in human HT-29 cells assessed as healthy cells at 1 uM incubated for 48 hrs by JC-1 staining based flow cytometry analysis (reference value: 93.4 %); assay type: functional
HT-29 [6] = assay: Antiproliferative activity against human HT-29 cells overexpressing NQO1 assessed as inhibition of cell growth preincubated with NQO1 inhibitor, dicoumarol for 30 mins followed by compound addition and measured after 72 hrs by MTT assay; assay type: functional, cell-based
HT-29 [7] = assay: Induction of apoptosis in human HT-29 cells assessed as dead cells at 2 uM incubated for 48 hrs by Annexin V-FITC/PI staining based flow cytometry analysis (Rvb= 0.01%); assay type: functional
[8] = Toxicity in […] xenografted with human HT-29 cells overexpressing NQO-1 assessed as reduction in body weight at 30 mg/kg, ip administered for 21 days and measured every 2 days; assay type: organism-based; settings: in vivo, 504 h, time 21 day
HT-29 [9] = assay: Induction of apoptosis in human HT-29 cells assessed as early apoptotic cells at 1 uM incubated for 48 hrs by Annexin V-FITC/PI staining based flow cytometry analysis (Rvb= 2.41%); assay type: functional
HT-29 [10] = assay: Induction of oxidative stress in human HT-29 cells assessed as increase in intracellular ROS generation incubated for 48 hrs by DCF-DA fluorescent probe based flow cytometry analysis; assay type: functional, cell-based; settings: dose 1-4 µM, DDE = dose-dependent effect
HT-29 [11] = assay: Induction of apoptosis in human HT-29 cells assessed as early apoptotic cells at 2 uM incubated for 48 hrs by Annexin V-FITC/PI staining based flow cytometry analysis (Rvb= 2.41%); assay type: functional
HT-29 [12] = assay: Induction of cell cycle arrest in human HT-29 cells assessed as accumulation of cells at G2 phase at 1 uM incubated for 48 hrs by RNaeA/propidium iodide based flow cytometry analysis (reference value: 13.96 %); assay type: functional

Question: Which Activity (HT-29 [1]) does the source give for `C=C(C)[C@@H]1CC[C@]2(C(=O)OCCOC(=O)CCC(=O)OCc3cn(C)c4c3C(=O)C(OC)=CC4=O)CC[C@]3(C)[C@H](CC[C@@H]4[C@@]5(C)CC[C@H](O)[C@@](C)(CO)[C@@H]5CC[C@]43C)[C@@H]12` here?
Answer: 22.58%

Question: What about the Activity (HT-29 [2]) of the same compound?
Answer: 2.16%

Question: And the Activity (HT-29 [3])?
Answer: 32.73%

Question: What about the Activity (HT-29 [4]) of the same compound?
Answer: 39.61%

Question: And the Activity (HT-29 [5])?
Answer: 79.07%

Question: And the IC50 (HT-29 [6])?
Answer: 9.22 µM

Question: And the Activity (HT-29 [7])?
Answer: 5.03%

Question: What about the Activity [8] of the same compound?
Answer: Non-Toxic

Question: What about the Activity (HT-29 [9]) of the same compound?
Answer: 12.54%

Question: What about the Activity (HT-29 [10]) of the same compound?
Answer: Dde

Question: And the Activity (HT-29 [11])?
Answer: 22.49%

Question: What about the Activity (HT-29 [12]) of the same compound?
Answer: 20.54%
